Entries after “also recorded” stand apart in the source; their conditions may differ. Where a name gives a salt, the structure may show the parent alone. Read-outs that look alike come from different tables or passages of the source.
Assays:
kappa receptor = target: T1, kappa receptor (Cavia porcellus, UniProt P41144); assay: biochemical; details: CI50, inhibition of 50% of the binding of a specific radioactive ligand
T1 construct: from tissue

mu receptor = assay: Binding affinity to opiate receptor mu (inhibition of binding of a specific radioactive ligand); details: for IC50: read-out: CI50, inhibition of 50% of the binding of a specific radioactive ligand, mu receptor
delta receptor = target: T2, delta receptor (Cavia porcellus, UniProt A0A286XTF2); assay: biochemical; details: CI50, inhibition of 50% of the binding of a specific radioactive ligand
T2 construct: from tissue

[1] = tested on: abdominal cramps caused by acetic acid; assay: Analgesic activity in vivo, abdominal cramps caused by intraperitoneal acetic acid (derived from Koster); design: species or system mice
[2] = tested on: opiate receptors of the gastric mucous membrane; assay: Effect of the products on the gastric evacuation of solids in dogs; assay type: in vivo; details: for Variation in % of gastric evacuation of solids: oral capsule, one hour after meal; for effect on gastric discharge of solids (in words): one hour after administration
Experimental: The principle of the test consists in measuring the gastric content of the animals one hour after eating a meal comprising 400 g of solid matter with 21.7% dry matter composed of:
and 20 g of sheeps liver containing radiolabelled cyanocobalamine. The meal is consumed within about 5 minutes by the animals. After one hour, the gastric content is collected by means of a small tube placed approximately 10 cm into the pyloris before the experiment.
The collected sample is weighed and homogenized. Its radioactivity is measured and the amount of the gastric discharge expressed in percentage is calculated according to the formula: [formula] in which: […]
In practice, each test is carried out on three dogs and consists in administering to them, 20 minutes before eating the meal described above, a capsule containing the test product at a dose of […] per kg animal weight or a capsule placebo which serves to determine the control phenomenon of the discharge on the animal. The 3 dogs receive each treatment twice in random order. […] The meal is presented and ingested 20 minutes after the capsule containing the test product has been administered. The evacuation values of the solid phases are measured as described before and compared using the test of Mann and Whitney (U test). The difference in comparison with the control values is considered significant when p is<or =0.05.
The effect of the test products is objectivised by the percentage variation calculated according to the relation: [formula]

[3] = Solubility, hygroscopicity and stability of the addition salt; details: D-(-) tartaric acid salt
[4] = tested on: opiate receptors of the kappa type in the gastric mucous membrane; details: dog, in vivo, cited from earlier work
mice = assay: Acute toxicity, oral, in male mice; assay type: in vivo
Experimental: (§1) This toxicity has been studied orally in male mice. The test products have been administered at the rate of 2 ml of their aqueous solution per 100 g of animal weight. The animals are then observed for 3 hours after administration, then daily for fourteen days, when they are sacrificed and then an autopsy is carried out.
(§2) The LD50 (lethal doses which cause the death of 50% of the animals) have been calculated according to the method of Reed J. L. and Muench H. (Am. J. Hyg. 1939, 27, p. 493).

[5] = Acute toxicity, oral, in male mice; assay type: in vivo; details: mouse, in vivo, po, fourteen days
Experimental: as §1, §2

duodenum of the rat = assay: tissue or blood; assay type: cell-based; details: for IC50: Rattus norvegicus
[6] = tested on: opiate receptors mu, delta and kappa; assay type: binding
gastric discharge = details: in vivo; cited from earlier work
[7] = mu receptor, racemates uncorrected
[8] = in vitro, compared with the (+) enantiomer or other receptors

T1 sequence (P41144 whole entry): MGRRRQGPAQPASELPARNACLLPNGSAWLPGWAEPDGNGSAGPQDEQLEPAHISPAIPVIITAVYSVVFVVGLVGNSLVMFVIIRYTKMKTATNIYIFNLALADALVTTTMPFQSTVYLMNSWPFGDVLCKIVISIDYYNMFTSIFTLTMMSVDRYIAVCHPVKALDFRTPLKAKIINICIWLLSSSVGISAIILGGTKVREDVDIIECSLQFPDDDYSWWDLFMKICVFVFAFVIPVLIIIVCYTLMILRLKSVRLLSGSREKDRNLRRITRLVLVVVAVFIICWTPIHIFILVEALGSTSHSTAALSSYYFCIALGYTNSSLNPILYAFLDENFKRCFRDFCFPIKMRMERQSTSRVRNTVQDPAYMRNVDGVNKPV
T2 sequence (A0A286XTF2 1-366): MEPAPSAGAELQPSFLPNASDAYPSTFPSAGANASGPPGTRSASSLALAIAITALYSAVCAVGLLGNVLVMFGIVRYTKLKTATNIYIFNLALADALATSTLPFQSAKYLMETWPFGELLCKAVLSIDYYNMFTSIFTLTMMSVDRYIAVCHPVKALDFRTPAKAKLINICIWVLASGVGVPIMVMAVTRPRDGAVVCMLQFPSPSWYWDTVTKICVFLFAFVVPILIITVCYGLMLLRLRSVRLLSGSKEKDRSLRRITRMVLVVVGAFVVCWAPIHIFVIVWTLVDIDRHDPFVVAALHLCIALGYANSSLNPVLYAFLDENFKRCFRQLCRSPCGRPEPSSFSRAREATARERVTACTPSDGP

**Q.** For `CCC(COCc1ccc(OC)c(OC)c1)(c1ccccc1)N(C)C` (racemic) [Ex. 1 of U.S. Pat. No. 4,301,163, (+/-)1-[(3,4-dimethoxy)benzyloxymethyl]-1-phenyl-N,N-dimethyl-n-propylamine], which IC50 (kappa receptor) is on record?
**A.** 1110 nM

**Q.** What about the IC50 (mu receptor; [7]) of the same compound?
**A.** 1110 nM

**Q.** And the IC50 (delta receptor)?
**A.** 7.8 µM

**Q.** For `CCC(COCc1ccccc1)(c1ccccc1)N(C)C` (racemic) [Ex. 3 of U.S. Pat. No. 4,301,163, (+/-)1-benzyloxymethyl-1-phenyl-N,N-dimethyl-n-propylamine], which IC50 (kappa receptor) is on record?
**A.** 560 nM

**Q.** And the “mu receptor affinity (in words)” value (mu receptor; [8])?
**A.** just as, if not more active

**Q.** And the IC50 (mu receptor; [7])?
**A.** 190 nM

**Q.** And the IC50 (delta receptor)?
**A.** 14.7 µM

**Q.** What about the “% analgesia” value ([1]; 50 mg/kg, orally, mice) of the same compound?
**A.** 27.6%

**Q.** For `CCC(COCc1cc(OC)c(OC)c(OC)c1)(NC)c1ccccc1` (racemic) [Ex. 12 of U.S. Pat. No. 4,301,163], which IC50 (kappa receptor) is on record?
**A.** 2280 nM

**Q.** What about the “mu receptor affinity (in words)” value (mu receptor; [8]) of the same compound?
**A.** just as, if not more active

**Q.** And the IC50 (mu receptor; [7])?
**A.** 360 nM

**Q.** And the IC50 (delta receptor)?
**A.** 2.25 µM

**Q.** What about the “% analgesia” value ([1]; 50 mg/kg, orally, mice) of the same compound?
**A.** 44.0%

**Q.** What about the “% analgesia, corrected for racemic compound (multiplied by two)” value ([1]; 50 mg/kg, orally, mice, racemate correction) of the same compound?
**A.** 88.0%

**Q.** What does the source list for `COc1ccc(C(C)(COCc2ccc(Cl)cc2)N(C)C)cc1` (racemic) [Ex. 13 of U.S. Pat. No. 4,301,163, (+/-) 1-(p-chlorobenzyloxymethyl)-1-(p-methoxyphenyl)N,N-dimethyl-n-ethylamine]?
**A.** IC50 (kappa receptor): 900 nM; mu receptor affinity (in words) (mu receptor; [8]): just as, if not more active; IC50 (mu receptor; [7]): 250 nM; IC50 (delta receptor): 4.39 µM; % analgesia ([1]; 50 mg/kg, orally, mice): 27.9%

**Q.** For `CCC(COC(=O)c1cc(OC)c(OC)c(OC)c1)(c1ccccc1)N(C)C` (racemic) [Trimebutine, (+/-)-2-dimethylamino-2-phenyl-n-butyl 3,4,5-trimethoxybenzoate], which “Variation in % of gastric evacuation of solids” value ([2]; 5 mg/kg) is on record?
**A.** -4%

**Q.** And the IC50 (kappa receptor)?
**A.** 1460 nM

**Q.** What about the “mu receptor affinity (in words)” value (mu receptor) of the same compound?
**A.** just as, if not more active

**Q.** And the IC50 (mu receptor)?
**A.** 146 nM

**Q.** What about the IC50 (delta receptor) of the same compound?
**A.** 1.75 µM

**Q.** And the “% analgesia” value ([1]; mouse, in vivo)?
**A.** 24.3%

**Q.** And the “% analgesia, corrected for racemic compound (multiplied by two)” value ([1]; mouse, in vivo)?
**A.** 48.6%

**Q.** What does the source list for `CCC(COCc1cc(OC)c(OC)c(OC)c1)(c1ccccc1)N(C)C` (single isomer, unassigned) [D-(-) tartaric acid addition salt, (+) 1-[(3,4,5-trimethoxy)-benzyloxymethyl]-1-phenyl-N-N-dimethyl-n-propylamineD-(-)-tartrate]?
**A.** hygroscopicity (in words) [3]: without being hygroscopic; physico-chemical stability (in words) [3]: physico-chemical stability necessary for its use; solubility in water (in words) [3]: soluble in water

**Q.** What does the source list for `CCC1C2Cc3ccc(O)cc3C1(CC)CCN2Cc1ccoc1` (single isomer, unassigned) [MR 2266]?
**A.** inhibition of the gastric discharge effect of kappa agonists (in words) [4]: inhibited; inhibition of the gastric discharge effect of the product of the invention by the antagonist (in words) ([2]; intravenous antagonist): inhibited

**Q.** Which “Variation in % of gastric evacuation of solids, with MR 2266” value ([2]; 0.25 mg/kg oral + MR 2266 0.1 mg per kg intravenous) does the source give for `CCC(COCc1cc(OC)c(OC)c(OC)c1)(c1ccccc1)N(C)C` (single isomer, unassigned; (+)) [(+) Enantiomer, (+) 1-[(3,4,5-trimethoxy)benzyloxymethyl]-1-phenyl-N,N-dimethyl-n-propylamine] here?
**A.** +14%

**Q.** What about the “Variation in % of gastric evacuation of solids, with naloxone” value ([2]; 0.25 mg/kg oral + naloxone 0.1 mg per kg intravenous) of the same compound?
**A.** +5%

**Q.** What about the “Variation in % of gastric evacuation of solids” value ([2]; 0.25 mg/kg) of the same compound?
**A.** +110%

**Q.** And the “effect on gastric discharge of solids (in words)” value ([2]; listed as compound of the invention)?
**A.** increased discharge of solids in dogs

**Q.** What about the “effect on gastric discharge of solids (in words)” value ([2]; listed as product of the invention) of the same compound?
**A.** doubles the gastric evacuation of the solids; also recorded: clearly shows an activity which encourages gastric discharge of solids in dogs

**Q.** And the “toxicity relative to the levorotatory antipode (in words)” value (mice)?
**A.** about half as toxic

**Q.** And the LD50 at 336 h [5]?
**A.** 407 mg/kg

**Q.** And the IC50 (kappa receptor)?
**A.** 232 nM

**Q.** And the IC50 (mu receptor; [7])?
**A.** 196 nM

**Q.** And the “antispasmodic activity (in words)” value (duodenum of the rat)?
**A.** activity slightly above that of papaverine; also recorded: possesses an antispasmodic activity

**Q.** What about the IC50 (duodenum of the rat; read-out: molar concentration inhibiting 50% of the amplitude of spasms caused by barium chloride) of the same compound?
**A.** 17 µM

**Q.** And the IC50 (delta receptor)?
**A.** 0.54 µM

**Q.** What about the “receptor binding affinity to mu, delta and kappa (in words)” value [6] of the same compound?
**A.** shows a receptor binding affinity to the receptors mu, delta and kappa; also recorded: shows an "in vitro" affinity with the opiate receptors mu, delta and kappa; also recorded: showing an affinity to the three receptors studied, with a non-negligible intensity

**Q.** What about the “% analgesia” value ([1]; mouse, in vivo) of the same compound?
**A.** 17.6%

**Q.** What about the “times less analgesic than the compound of Example 12 of the U.S. Patent” value ([1]; mouse, in vivo) of the same compound?
**A.** ~5 times

**Q.** What about the “times less analgesic than the trimebutine” value ([1]; mouse, in vivo) of the same compound?
**A.** ~3 times

**Q.** What about the “analgesic effect (in words)” value ([1]; mouse, in vivo, po) of the same compound?
**A.** virtually without any analgesic effect; also recorded: does not have "in vivo", as one would expect it, a central analgesic activity; also recorded: very little analgesic effect

**Q.** What does the source list for `CCC(COCc1cc(OC)c(OC)c(OC)c1)(c1ccccc1)N(C)C` (single isomer, unassigned; (-)) [(-) Enantiomer, (-) 1-[(3,4,5-trimethoxy)benzyloxymethyl]-1-phenyl-N,N-dimethyl-n-propylamine]?
**A.** Variation in % of gastric evacuation of solids ([2]; 0.25 mg/kg): +26%; effect on gastric discharge of solids (in words) ([2]; listed as levorotatory enantiomer): four times less significant; LD50 (mice; fourteen days, 20160 min): 255 mg/kg; IC50 (kappa receptor): 2630 nM; IC50 (mu receptor; [7]): 580 nM; IC50 (delta receptor): 12.3 µM

**Q.** For `CN1CC[C@]23c4c5ccc(O)c4O[C@H]2[C@@H](O)C=C[C@H]3[C@H]1C5` [Morphine], which “antispasmodic activity (in words)” value (duodenum of the rat; barium chloride, duodenum of the rat, in vitro) is on record?
**A.** inactive; also recorded: inactive at a concentration of more than 5 times greater than that of the product of the invention

**Q.** With `COc1ccc(Cc2nccc3cc(OC)c(OC)cc23)cc1OC` [Papaverine] as the compound, how does the IC50 (duodenum of the rat; read-out: IC50, inhibition of 50% of the amplitude of contractions) read?
**A.** 27.4 µM

**Q.** With `CN1c2ccccc2C(c2ccccc2F)=NCC1CNC(=O)c1ccsc1` (stereo not shown) [Tifluadom] as the compound, how does the “gastric discharge after oral administration (in words)” value ([4]; po) read?
**A.** increased gastric discharge; also recorded: modify the gastric discharge by their local action

**Q.** With `CCN(CC)CCNC(=O)c1cc(Cl)c(N)cc1OC` [metoclopramide] as the compound, how does the “gastric discharge (in words)” value (gastric discharge) read?
**A.** possesses this property
